Experiments:
[1] = target: Tet(X7); test: Fluorescence polarisation binding assay of probes with purified TDase; details: 25 nM probe, 5 mM MgCl2, 1 μM FAD, 100 mM Tris pH 7.0, 0.01% Triton X-100
Procedure: (§1) NADPH was not included to prevent turnover of the probe to the hydroxylated product, which would likely have a lower binding affinity than the initial probes. Screens were conducted in pH 7.0 buffer with addition of 0.01% Triton-X100 detergent in non-binding plates to minimise adsorption to the plate wells.[45]
(§2) Aliquots of TDases were thawed and serially diluted with the assay buffer (100 mM Tris, pH 7.0 with 0.01% Triton X-100) in a V-bottom 96-well plate (Greiner Bio-One). 12.5 μL of each concentration of enzyme was transferred in quadruplicate to a 384-well black, non-binding microtiter plate (Greiner Bio-One). Aliquots of 2 mM stock of fluorescent probes 5 and 6 in DMSO were thawed and diluted to 50 nM in the assay buffer with 2 μM FAD and 10 mM MgCl2. 12.5 μL of this solution was added to wells containing enzyme. A negative control of 12.5 μL of the probe solution with 12.5 μL of the assay buffer was included on each plate. The plate was briefly centrifuged (1000 rpm), then incubated at ambient temperature for 30 min before measuring the FP response using a PHERAstar FS microplate reader (BMG Labtech) equipped with an FP optic module (excitation = 540 ± 20 nm, Emission = 590 ± 20 nm, 200 flashes per well). ΔmP values were calculated by subtracting the average mP of the negative controls from the mP measured for each well. To calculate Kd values, the derived ΔmP values were plotted as a function of enzyme concentration and a one-site specific binding model was applied (GraphPad Prism 9.4.1).

[2] = target: Tet(X5); test: as above; details: 25 nM probe, 5 mM MgCl2, 1 μM FAD, 100 mM Tris pH 7.0, 0.01% Triton X-100
Procedure: as §1, §2

[3] = target: T1, Tet(X2) (Bacteroides thetaiotaomicron, UniProt Q93L51); test: as above
T1 construct: For Tet(X2), the full-length protein was prepared rather that the Δ1–10 mutant used previously for crystallographic studies; made in house; host or cells: E. coli BL21(DE3)
Procedure: as §1, §2

[4] = target: T2, Tet(50) (Unknown prokaryotic organism, UniProt A0A059WYP6); test: as above
T2 construct: made in house; host or cells: E. coli BL21(DE3)
Procedure: as §1, §2

[5] = target: T3, Tet(X4) (Escherichia coli, UniProt A0A3T0V9Y5); test: Turnover of probe 6 (absorbance and LC-MS); type: biochemical; details: with NADPH; decrease of A400 and +16 Da species by LC-MS
Procedure: To investigate whether fluorescent probe 6 binds to the active site of the Tet(X) enzymes, we carried out docking of the probe with Tet(X4)[8] (ESI Fig. S10 ^†). […] We thus considered that probe 6 may be hydroxylated by Tet(X4) when NADPH was added to initiate turnover. We monitored turnover of probe 6 using an absorbance-readout assay with Tet(X4) adapted from previous studies.[33] A decrease in absorbance at 400 nm was observed, consistent with hydroxylation, but was not seen in a control reaction lacking Tet(X4) (ESI Fig. S11 ^†). This observation was corroborated by LC-MS analysis of the reaction (ESI Fig. S12 ^†). Appearance of an apparently mono-hydroxylated species with mass 989.348 Da (calculated mass: 989.3504 Da) was observed, +16 Da relative to the starting material (measured mass: 973.355 Da; calculated mass: 973.3555 Da).
233 Absorbance Activity Assays […]
243 CLARIOstar Plus Microplate reader. The absorbance was monitored at wavelength […] over the […]
245 calculated by measuring the rate of change of A400 during the initial linear regime. […]
247 function of log10([Inhibitor]) in molar units, and the IC50 was determined as above. […]
252 reaction was monitored by recording the absorbance spectra between 200-800 nm at one-minute […]
261 Quenched samples were stored at -20 °C prior to analysis. Samples were analysed using a Xevo G2-XS […]

[6] = target: T3, Tet(X4); test: Fluorescence polarisation binding assay of probes with purified TDase
Procedure: as §1
as §2, with “Aliquots of 2 mM stock of fluorescent probes 5 and 6 in DMSO were thawed and diluted to 50 nM in the assay buffer with 2 μM FAD and 10 mM MgCl2.” left out

How did the Kd [1] turn out when `CN(C)c1ccc2c(-c3ccc(NC(=S)NCC(=O)Nc4cc(N(C)C)c5c(c4O)C(=O)C4=C(O)[C@]6(O)C(=O)C(C(N)=O)=C(O)C(N(C)C)[C@@H]6C[C@@H]4C5)cc3C(=O)[O-])c3ccc(=[N+](C)C)cc-3oc2c1` (stereo partly drawn) [Probe 6, TRITC-glycyl-minocycline] was run?
Its Kd is 40.5 ± 5.1 nM.

And the Kd [2]?
The Kd was 10.6 ± 1.3 nM.

What about the Kd [3] of the same compound?
The Kd was 22.4 ± 4 nM.

And the Kd ([4]; 25 nM probe, 5 mM MgCl2, 1 μM FAD, 100 mM Tris pH 7.0, 0.01% Triton X-100)?
Its Kd is > 5000 nM.

What about the “binding to Tet(50) (in words)” value ([4]; up to a concentration of 5 μM of enzyme) of the same compound?
Its value is “no detectable binding”.

What about the “turnover by Tet(X4) (in words)” value [5] of the same compound?
The value was “can be turned over”.

What about the Kd ([6]; Kd, 25 nM probe, 5 mM MgCl2, 1 μM FAD, 100 mM Tris pH 7.0, 0.01% Triton X-100) of the same compound?
The Kd was 17.3 ± 1.9 nM.

And the Kd ([6]; apparent Kd, with 5 mM MgCl2)?
The Kd was 18.1 ± 2.4 nM.

What about the Kd ([6]; apparent Kd, without MgCl2) of the same compound?
Its Kd is 188 ± 33 nM.

Reference: publication PMC12056667 (Chemical Science, 2025)
